Patent US7494996B2 (priority 2000, dated 2009)

How the values were obtained:
Sphaerotheca fuliginea = test: Cucumber Powdery Mildew (CPM) protectant test in the greenhouse; assay type: in vivo; settings: 100 is total disease control, 0 is no disease control; for Cucumber Powdery Mildew (CPM) protectant fungicide data, percent control: 300 g/ha; for pest or weed control at 300 g/ha: Podosphaera fuliginea, topical, 168 h, read-out: Cucumber Powdery Mildew (CPM) protectant fungicide data, percent control
Experimental: Plants used in the fungicide testing program were grown in 2-¼-inch (5.7-cm). square pots containing RediEarth propagation substrate. The plants were raised under greenhouse conditions. The rice plants were 12-days-old and cucumbers were 13-days-old at the time of spraying with chemical treatments.
The sample of the experimental chemical was weighed and dissolved in an acetone-methanol-water solution (A/M/W at 1:1:2 ratio by volume).
After sprayer calibration, the test solutions were poured into the fungicide sprayer. The fungicide sprayer contains three spray nozzles, located approximately 10 cm above and to the sides of the plants. The spray produced by the nozzles results in uniform coverage of both the upper and lower parts of the plant leaves. After spraying, the treated plants were placed in a drying chamber for 4 hours, prior to sorting.
Cucumber Powdery Mildew (CPM), caused by the fungus Sphaerotheca fuliginea, was maintained on large cucumber plants. For inoculum preparation, five to eight leaves depending on size, completely covered with powdery mildew spores, were collected. The leaves were placed in a glass jar and covered with 500 ml of water, containing 5 drops of Tween-80. The material was filtered through two layers of cheesecloth to remove leaf fragments. The spore count was adjusted to 2×10^5 spores per ml.
Cucumber plants, cv. “Bush Champion,” were used for this test. The plants were thinned to one per pot after the cotyledons were fully developed. Two days before the test, the small leaves and meristem region were removed, leaving only the cotyledons and one large true leaf.
The protectant tests required that the cucumber plants be inoculated 1 day after spraying with the chemical treatment. The plants were inoculated with a hand-held spray bottle with the suspension of fungal spores. The leaves were lightly misted on the upper surface from two different spray directions. Disease development occurred in the greenhouse.
After seven days, the plants were evaluated for percent of disease control. The results are reported as percent control; 100 is total disease control, 0 is no disease control.

Pyricularia oryzae = test: whole plant or invertebrate; assay type: in vivo; settings: 100 is total disease control, 0 is no disease control; for Rice Blast (RB) protectant fungicide data, percent control: 300 g/ha, greenhouse; for pest or weed control at 300 g/ha: Pyricularia oryzae, topical, 144 h, read-out: Rice Blast (RB) protectant fungicide data, percent control, protectant, 300 g/ha, greenhouse

Row | SMILES | Cucumber Powdery Mildew (CPM) protectant fungicide data, percent control (Sphaerotheca fuliginea) [percent control] | Rice Blast (RB) protectant fungicide data, percent control (Pyricularia oryzae) [percent control] | pest or weed control at 300 g/ha (Sphaerotheca fuliginea) [%] | pest or weed control at 300 g/ha (Pyricularia oryzae) [%]
1 | CCCCN1N=C(c2ccc(OC)cc2)NCC1=O [Compound 36] | 50 | 99 |  | 
2 | CCCCN1N=C(c2ccc3ccccc3c2)NCC1=O [Compound 119] | 0 | 99 |  | 
3 | O=C1CNC(c2cccc(F)c2)=NN1CC1CC1 [Compound 223] | 80 | 95 |  | 
4 | C=CCOC(=O)N1CC(=O)N(CCCC)N=C1c1ccc(Cl)c(Cl)c1 [Compound 172] | 0 | 98 |  | 
5 | O=C1CNC(c2ccc(Cl)cc2)=NN1Cc1ccccc1 [Compound 30] | 75 | 85 |  | 
6 | C#CCN1N=C(c2cccc(C(F)(F)F)c2)NCC1=O [Compound 88] | 50 | 100 |  | 
7 | O=C1CNC(c2ccc(-c3ccc([N+](=O)[O-])cc3)cc2)=NN1CC(F)(F)F [Compound 142] | 0 | 80 |  | 
8 | CCC#CCN1N=C(c2ccc(Cl)c(Cl)c2)NCC1=O [Compound 210] | 25 | 100 |  | 
9 | O=c1cnc(-c2ccccc2Cl)nn1CC(F)(F)F [Compound 267] | 85 | 80 |  | 
10 | O=C1CNC(c2cc(Cl)cc(Cl)c2)=NN1CC=CCl (mixture of isomers) [Compound 67] | 80 | 99 |  | 
11 | CCCCN1N=C(c2ccc(C(F)(F)F)cc2)NCC1=O [Compound 117] | 0 | 90 |  | 
12 | CCCN1N=C(c2cc(Cl)cc(Cl)c2)NCC1=O [Compound 107] | 95 | 99 |  | 
13 | CCCCN1N=C(C)NC(c2ccc(OC)cc2)C1=O (centres unmarked) [Compound 79] | 50 | 75 |  | 
14 | CCCCN1N=C(c2ccc(F)c(Cl)c2)NCC1=O [Compound 106] | 95 | 100 |  | 
15 | C#CCN1N=C(c2cccc(Br)c2)NCC1=O [Compound 227] | 75 | 90 |  | 
16 | CCCCN1N=C(c2ccc(C)c(Cl)c2)NCC1=O [Compound 294] | 80 | 100 |  | 

Row | SMILES | Cucumber Powdery Mildew (CPM) protectant fungicide data, percent control (Sphaerotheca fuliginea) [percent control] | Rice Blast (RB) protectant fungicide data, percent control (Pyricularia oryzae) [percent control] | pest or weed control at 300 g/ha (Sphaerotheca fuliginea) [%] | pest or weed control at 300 g/ha (Pyricularia oryzae) [%]
17 | CCCCN1N=C(c2ccc(Cl)c(Cl)c2)N(C(=S)Oc2ccccc2)CC1=O [Compound 178] | 0 | 75 |  | 
18 | CCCCCN1N=C2C=CC(c3ccc(Cl)cc3)=NN2CC1=O [Compound 24, 2-Pentyl-7-(4-chlorophenyl)-pyridazino[6,1-c][1,2,4]triazin-3(4H)one] |  |  | 50 | 0
19 | CCCCN1N=C(c2cc(Cl)cc(Cl)c2)N(C(=O)OC)CC1=O [Compound 130] | 0 | 50 |  | 
20 | Cc1cccc(N2N=C(c3ccc(Cl)cc3)NCC2=O)c1 [Compound 58] | 50 | 85 |  | 
21 | CCCCN1N=C(c2ccc(Cl)cc2Cl)NCC1=O [Compound 2, 1-butyl-3-(2,4-dichlorophenyl)-4,5-dihydro-1,2,4-triazin-6-one] |  |  | 85 | 95
22 | O=C1CNC(c2ccccc2Cl)=NN1CC(F)(F)F [Compound 97] | 85 | 0 |  | 
23 | Cc1ccccc1C1=NN(CC(F)(F)F)C(=O)C(O)N1 (centres unmarked) [Compound 105] | 75 | 85 |  | 
24 | O=c1cnc(-c2ccc(Cl)c(Cl)c2)nn1CC1CC1 [Compound 272] | 80 | 100 |  | 
25 | CCCCN1N=C(c2ccccc2O)NCC1=O [Compound 83, 1-n-Butyl-3-(2-hydroxyphenyl)-4,5-dihydro-1,2,4-triazin-6-one] |  |  | 0 | 80
26 | Cc1cccc(N2N=C(c3ccc(-c4ccccc4)cc3)NCC2=O)c1 [Compound 186] | 0 | 85 |  | 
27 | CCCCCN1N=C(c2ccc(Cl)cc2)NCC1=O [Compound 54] | 85 | 99 |  | 
28 | C#CCN1N=C(c2cccc(F)c2)NCC1=O [Compound 225] | 0 | 80 |  | 
29 | O=C1CNC(c2cc(Cl)cc(Cl)c2)=NN1 [Compound 64] | 0 | 50 |  | 
30 | O=C1CNC(c2ccc3ccccc3c2)=NN1 [Compound 124] | 0 | 75 |  | 
31 | CCc1ccc(C2=NN(CCc3ccccc3)C(=O)CN2)cc1 [Compound 189] | 75 | 80 |  | 
